System: hmNPCs
Test: Western blot of proliferation marker PCNA and survival marker Bcl-2
Format: cell-based, human
Settings: 2 weeks
Protocol: To determine long-term proliferation, hmNPCs were plated and expanded for 2 passages with or without addition of various agents (see below) to the custom expansion media containing the growth factors EGF and FGF2. Different fetal midbrain tissues were included in this study. At the end of the proliferation period, differentiation of hmNPCs was induced via replacement of expansion media with mitogen-free media containing 1% FCS, 5 µM forskoline (Sigma-Aldrich Chemie GmbH Munich, Germany), and 100 pg/ml IL-1β (Sigma). The differentiation and expansion media were supplemented with different drugs as appropriate. Prior to immunocytochemistry or protein extraction, hmNPCs were allowed to differentiate for 1 week. To determine short-term proliferation via Ki67 immunostaining, the cells were seeded into 24-well plates (70,000 cells/well) and left overnight to rest. P2 receptor agonists (ATP, UTP, ATP + UTP, ADP, ADPβS) were supplied daily for 5 consecutive days. Ki67/nestin double-positive cells were counted in 8 randomly selected fields of nucleotide-treated or untreated samples. For the assessment of MAPK phosphorylation the cells were kept free of mitogens for 2 d prior to addition of the MEK-inhibitor in expansion media. In addition, the MEK-inhibitor was added during the differentiation period 15 min before UTP administration.
In order to prepare protein extracts, hmNPCs were collected, washed with ice-cold PBS and lysed in buffer [10 mM HEPES-KOH (pH 7.9), 10 mM KCI, 1.5 mM MgCl2, 0.1% NP-40], supplemented with protease inhibitor cocktail (Roche). After a brief centrifugation at 4°C/10 000×g, protein concentrations and protein yield from extracts were determined using the Bradford method (Bio-Rad, Hercules, CA, USA). To preserve the phosphorylation state of proteins, extracts for the MAPK experiment were obtained using the PhosphoSafe™ extraction reagent containing phophatase inhibitors (Novagen). […] The chemiluminescence was quantified using the AIDA, two-dimensional densitometry software (Raytest lsotopenmeb, Straubenhardt, Germany). […]

## O=c1ccn([C@@H]2O[C@H](COP(=O)(O)OP(=O)(O)OP(=O)(O)O)[C@@H](O)[C@H]2O)c(=O)[nH]1 [UTP, uridine 5'-triphosphate]
Homo sapiens, 336 h, 1 µM, read-out: expression of the proliferation marker PCNA compared to control cells
  activity at 1 µM: 330 ± 23%
Increasing UTP concentrations
  expression of the survival marker Bcl-2: did not significantly change

From patent EP1897937A1, “Method of culturing NPCs” (NeuroProgen GmbH Leipzig, priority 2006, dated 2008)
